Inhibition and IC50 data for one compound are collected here from US8436039B2, “Inhibitors of the ATB(0,+) transporter and uses thereof” (Georgia Health Sciences University Research Institute, Inc., priority 2008, dated 2013).

The experiment deals with T1, human ATB^0,+ (Homo sapiens, UniProt Q9UN76).
T1 construct: The human ATB^0,+ cDNA was cloned from an MCF7 cell (a human mammary epithelial cancer cell line) cDNA library; expressed in transfected cells; host or cells: Xenopus laevis oocytes injected with 50 ng capped cRNA
T1 sequence (Q9UN76 1-642): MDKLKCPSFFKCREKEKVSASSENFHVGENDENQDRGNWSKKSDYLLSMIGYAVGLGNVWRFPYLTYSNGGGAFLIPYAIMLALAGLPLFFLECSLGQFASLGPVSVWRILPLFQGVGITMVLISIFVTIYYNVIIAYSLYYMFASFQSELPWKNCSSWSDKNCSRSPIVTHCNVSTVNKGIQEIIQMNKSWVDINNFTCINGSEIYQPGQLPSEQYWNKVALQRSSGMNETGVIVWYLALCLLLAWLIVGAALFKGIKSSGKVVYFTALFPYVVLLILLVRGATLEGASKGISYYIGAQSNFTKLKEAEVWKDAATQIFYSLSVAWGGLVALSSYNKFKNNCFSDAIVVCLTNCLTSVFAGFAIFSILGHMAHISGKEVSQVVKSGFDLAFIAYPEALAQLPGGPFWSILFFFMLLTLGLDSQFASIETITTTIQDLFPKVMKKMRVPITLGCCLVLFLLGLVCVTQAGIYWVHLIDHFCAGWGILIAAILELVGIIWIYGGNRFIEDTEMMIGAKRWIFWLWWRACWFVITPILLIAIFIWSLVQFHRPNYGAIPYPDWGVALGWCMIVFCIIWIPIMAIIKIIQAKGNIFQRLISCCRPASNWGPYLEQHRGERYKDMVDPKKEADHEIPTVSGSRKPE
Put plainly: Block of inward currents induced by amino acid mixture simulating plasma in X. laevis oocytes expressing human ATB^0,+. It counts as cell-based. As to the method: Capped cRNA from the cloned mouse or human ATB^0,+ cDNA was synthesized using the mMESSAGE mMACHTNE kit (Ambion, Austin, Tex., U.S.A.). Mature oocytes (stage IV or V) from X. laevis were injected with 50 ng of cRNA. Uninjected oocytes served as controls. The oocytes were used for electrophysiological studies 3-6 days after cRNA injection. Electrophysiological studies were performed by the two-microelectrode voltage-clamp method (Nakanishi et al., 2001, J. Physiol. 532, 297-304). Oocytes were superfused with an NaCl-containing buffer (100 mM NaCl, 2 mM KCl, 1 mM MgCl2, 1 mM CaCl2, 3 mM Hepes, 3 mM Mes and 3 mM Tris, pH 7.5), followed by the same buffer containing tryptophan derivatives. The membrane potential was clamped at −50 mV. The differences between the steady-state currents measured in the presence and absence of substrates were considered as the substrate-induced currents. In the analysis of the saturation kinetics of substrate-induced currents, the kinetic parameter K0.5 (i.e. substrate concentration necessary for induction of half-maximal current) was calculated by fitting the values of the substrate-induced currents to the Michaelis-Menten equation. The Na^+ and Cl^− activation kinetics of substrate-induced currents were analysed by measuring the substrate-specific currents in the presence of increasing concentrations of Na^+ (concentration of Cl^− kept constant at 100 mM) or in the presence of increasing concentrations of Cl^− (concentration of Na^+ kept constant at 100 mM). In these experiments, the composition of the superfusion buffer was modified to contain 2 mM potassium gluconate, 1 mM MgSO4 and 1 mM calcium gluconate in place of KCl, MgCl2 and CaCl2 respectively. The data from these experiments were analysed by the Hill equation to determine the Hill coefficient (h; number of Na^+ and Cl^− ions involved in the activation process). The kinetic parameters were determined by using the commercially available computer program Sigma Plot, version 6.0 (SPSS, Chicago, Ill., U.S.A.). Uninjected oocytes were used to determine the currents induced by tryptophan derivatives due to entry via transporters that may be constitutively expressed in the oocytes. At a concentration of 2.5 mM, the currents induced by these compounds were in the range of 0-3 nA in uninjected oocytes. These currents were less than 2% of the corresponding currents induced in ATB^0,+ cRNA-injected oocytes. Therefore the endogenous currents associated with the constitutively expressed transporters were not considered in the analysis of kinetic parameters of ATB^0,+ transport activity.
These studies with α-methyl-DL-tryptophan as a blocker of ATB^0,+ were carried out with L-tryptophan at sub-saturating concentrations. […] Therefore, using the Xenopus oocyte heterologous expression system, we monitored the transport activity of human ATB^0,+ in the presence of an amino acid mixture consisting of 18 different amino acids, each at its respective physiological concentration found in plasma (Glew et al., 2004, Clin. Chim. Acta 342, 179-185) (Table 1). Inward currents were detected under these conditions in oocytes expressing human ATB^0,+. […] We then monitored the ability of α-methyl-DL-tryptophan to block the inward currents induced by the same mixture of amino acids in oocytes expressing human ATB^0,+ (FIG. 4B). […]

Structures are written as SMILES. “And” between values parts separate entries of the source, which are not always exact repeats. Equal entries are not always repeated.

Take `CC(N)(Cc1c[nH]c2ccccc12)C(=O)O` (racemic) [α-methyl-DL-tryptophan]: the inhibition at 2500 µM (2.5 mM, 18 amino acids at plasma concentrations, read-out: maximal inhibition of amino acid mixture-induced currents) is around 85%. Also, the IC50 (18 amino acids at normal plasma concentrations, read-out: concentration necessary to elicit 50% of maximal inhibition (IC50) of amino acid mixture-induced currents) is ~250 µM and 255 µM.

In general, inhibition refers to the drop in the measured response relative to a control, in per cent.
